{
  "source": "patent EP3970691A1",
  "about": "“SLIMMING COSMETIC COMPOSITIONS CONTAINING ONE OR MORE LIMONOIDS” (C.F.E.B. Sisley, priority 2020, dated 2022)",
  "type_in_all_cases": "cell-based",
  "key": {"CERT [1]": {"target": "T1, CERT (Mus musculus, UniProt Q9EQG9)", "T1 construct": "endogenous in cells; host or cells: 3T3-L1", "T1 sequence (Q9EQG9 1-624)": "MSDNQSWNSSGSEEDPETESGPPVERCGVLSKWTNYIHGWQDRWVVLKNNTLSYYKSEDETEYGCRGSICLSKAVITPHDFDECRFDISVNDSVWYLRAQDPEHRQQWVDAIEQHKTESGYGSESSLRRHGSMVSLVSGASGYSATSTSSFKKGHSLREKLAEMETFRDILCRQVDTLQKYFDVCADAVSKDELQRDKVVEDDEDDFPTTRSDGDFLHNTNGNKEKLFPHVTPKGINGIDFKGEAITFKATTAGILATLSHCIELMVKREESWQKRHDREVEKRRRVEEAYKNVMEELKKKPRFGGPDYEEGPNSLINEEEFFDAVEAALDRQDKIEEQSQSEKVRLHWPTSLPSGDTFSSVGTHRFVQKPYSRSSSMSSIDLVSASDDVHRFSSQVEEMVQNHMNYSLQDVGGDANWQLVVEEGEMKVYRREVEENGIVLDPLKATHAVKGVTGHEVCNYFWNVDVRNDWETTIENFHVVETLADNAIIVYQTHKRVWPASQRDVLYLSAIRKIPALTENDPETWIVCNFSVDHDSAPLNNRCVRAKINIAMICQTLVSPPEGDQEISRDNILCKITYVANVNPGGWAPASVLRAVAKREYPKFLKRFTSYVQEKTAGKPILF", "test": "Dose-response on basal 3T3-L1: total ceramide assay (DAG kinase) as readout of CERT inhibition", "details": "3T3-L1 in basal state, total ceramides; data not shown", "source_text": "(§1) Les taux de céramides dans les extraits de lipides cellulaires sont mesurés par la méthode enzymatique de la DAG kinase. Le principe de ce dosage est de phosphoryler les céramides avec de l'ATP radiomarqué grâce à l'action de cette enzyme, puis de quantifier les radiations obtenues pour chaque échantillons, permettant ainsi de doser la quantité totale de céramides présents initialement dans les échantillons. Les résultats sont exprimés en fmol de céramides et normalisés par rapport à la quantité de phospholipides totaux dans les échantillons, exprimée en nmol.\n(§2) La quantité de phospholipides totaux contenue dans les extraits cellulaires est dosée afin de normaliser les céramides présents dans chaque échantillon. La quantité de phospholipides totaux est mesurée par spectrophotométrie : l'absorbance est mesurée à 660 nm, puis calculée grâce à une gamme de sodium phosphate dibasique (Sigma-Aldrich) permettant de déterminer la concentration en phosphates dans chaque échantillon."}, "pré-adipocytes humains": {"tested_on": "pré-adipocytes humains", "test": "RT-qPCR gene expression in differentiating human pre-adipocytes", "details": "treated during induction phase", "protocol": "Comme pour les 3T3-L1, le protocole de différenciation des PrAH se déroule en deux étapes : les cellules sont exposées à milieu d'induction puis à un milieu d'accumulation, ces deux phases durant 10 jours chacune.\nLe milieu d'induction est composé du milieu d'entretien supplémenté de l'insuline à 1µM, de l'IBMX à 500µM, de la dexaméthasone à 1µM ainsi que de l'indométhacine à 200µM. Le milieu d'accumulation est quant à lui composé du milieu d'entretien auquel on ajoute de l'insuline à 1µM.\n(§3) L'extraction des ARNm à partir de ces échantillons est réalisée avec un kit RNeasy® Mini Kit, commercialisé par QIAGEN®.\n(§4) La rétrotranscription des ARN extraits des échantillons en ADNc est réalisée selon le protocole suivant : les ARN sont incubés à 50°C pendant 30 minutes afin de réaliser la rétro-transcription des ARN en présence de la réversetranscriptase M-MLV; puis à 95°C pendant 15 minutes afin d'inhiber l'activité de la rétrotranscriptase, de dégrader les amorces d'ARN et d'activer la polymérase.\n(§5) La PCR quantitative est réalisée dans Le LightCylcer 1.5 (Roche) grâce au kit FastStart DNA Master plus SYBR Green I (Roche).\nDans un premier temps, les cellules ont donc été traitées avec de la Gédunine durant la phase d'induction. Le niveau d'expression de gènes impliqués dans l'adipogenèse et dans la fonction adipocytaire a été évalué. Dans un deuxième temps, les cellules ont été colorées avec de l'Huile Rouge afin de visualiser leur capacité à stocker des lipides au sein de leurs gouttelettes lipidiques."}, "3T3-L1 [2]": {"tested_on": "3T3-L1", "test": "Oil Red staining of lipid droplets in 3T3-L1 (microscopy)", "details": "AdJ7, 10µM in induction (GED1) or accumulation (GED2) phase", "source_text": "Afin de visualiser les gouttelettes lipidiques contenues dans les adipocytes matures et donc de quantifier le niveau de différenciation des cellules, les lipides sont marqués avec de l'huile rouge. L'huile rouge est un colorant liposoluble qui colore les lipides neutres et donc les triglycérides stockés dans les gouttelettes.\n(§6) L'inhibition de CERT, et donc de la synthèse de SM, par le traitement à la GED ayant été validée, la question a donc ensuite été de savoir si cela avait un effet sur la capacité de différenciation des cellules. Le même protocole de différenciation a donc été appliqué, associé ou non à un traitement à la Ged (figure 2A), et les niveaux d'expression de gènes impliqués d'une part dans l'adipogenèse et d'autre part dans la fonction adipocytaire ont été mesurés. Par ailleurs, les analyses transcriptomiques ont été combinées avec une analyse phénotypique des échantillons : un marquage à l'huile rouge, qui, en marquant les lipides, permet de visualiser les gouttelettes lipidiques dans les cellules et donc de savoir si celles-ci sont différenciées et fonctionnelles."}, "CERT [3]": {"target": "T1, CERT", "test": "Total ceramides and sphingomyelins during 3T3-L1 differentiation under gedunin treatment", "protocol": "(§7) Le protocole de différenciation se déroule en deux étapes : une phase d'induction (2 jours) suivie d'une étape d'accumulation (2 à 5 jours). • Milieu d'induction : Il s'agit du milieu d'entretien des 3T3-L1 supplémenté de 1µM d'Insuline; 1.25µM de Dexaméthasone et 250µM d' IBMX (3-isobutyl-1-methylxanthine) • Cocktail d'accumulation : Ce milieu est composé du milieu d'entretien des 3T3-L1 supplémenté de 1µM d'Insuline ;\nLes lipides ont été extraits et les échantillons préparés pour la chromatographie liquide couplée à la spectrométrie de masse (cf. Bligh E.G. et al, 1959).\nas §1, §2\nAfin de déterminer si la GED est capable d'inhiber le transport des céramides du RE vers le Golgi au cours du processus de différenciation des 3T3-L1, ces cellules ont été mises en contact de la GED au cours des deux phases du protocole (Schéma 3). Puis les céramides totaux et les sphingomyélines ont été quantifiés (figure 2A)."}, "3T3-L1 [4]": {"tested_on": "3T3-L1", "test": "RT-qPCR expression of adipogenesis and adipocyte function genes during 3T3-L1 differentiation", "protocol": "as §7, §3, §4, §5, §6\nLes niveaux d'expression des gènes Pref1, comme marqueur pré-adipocytaire, ainsi que de PPARγ, C/EBPα et C/EBPδ qui sont des FT clés dans l'adipogenèse, ont été mesurés."}, "3T3-L1 [5]": {"tested_on": "3T3-L1", "test": "Oil Red O neutral lipid quantification (spectrophotometry) in differentiating 3T3-L1", "details": "for quantité de lipides: vs control", "source_text": "Brièvement : Des cellules 3T3-L1 ont été ensemencés dans leur milieu d'entretien. A confluence, les cellules ont été mises au contact des produits à tester dans un milieu permettant la différentiation des pré-adipocytes en adipocytes via la présence d'un cocktail d'induction. A l'issue du contact, les lipides neutres stockés dans les gouttelettes lipidiques des adipocytes ont été marqués par la coloration Huile Rouge O. Les lipides neutres ont été extraits (extraction à l'isopropanol) et dosés par spectrophotométrie. Les densités optiques obtenues sont proportionnelles à la quantité de lipides."}, "[6]": {"details": "GED1 and GED2, stage AdJ7, vs CTRL"}},
  "data": [
    {"smiles": "CC(=O)O[C@@H]1C[C@H]2C(C)(C)C(=O)C=C[C@]2(C)[C@H]2CC[C@@]3(C)[C@H](c4ccoc4)OC(=O)[C@H]4O[C@]43[C@@]21C", "note": "[Gédunine, gédunine]", "values": [
      {"measurement": "dose de GED à partir de laquelle les céramides commencent à s'accumuler", "setting": "CERT [1]", "value": "≥ 10", "unit": "µM"},
      {"measurement": "expression du marqueur pré-adipocytaire Pref1", "setting": "pré-adipocytes humains; CTRL vs GED", "value": "aucune différence significative"},
      {"measurement": "expressions de AdipoQ, FAS et LPL", "setting": "pré-adipocytes humains; vs CTRL", "value": "diminution des expressions de AdipoQ, FAS et LPL"},
      {"measurement": "induction de l'expression de PPARγ", "setting": "pré-adipocytes humains; vs CTRL", "value": "fortement diminuée"},
      {"measurement": "marquage des lipides neutres par l'huile rouge", "setting": "3T3-L1 [2]", "value": "ne sont plus marquées"},
      {"measurement": "céramides totaux", "setting": "CERT [3]; 3T3-L1, 10µM in induction phase, then control accumulation medium without GED", "value": "ne présentent pas d'accumulation des céramides"},
      {"measurement": "céramides totaux", "setting": "CERT [3]; 3T3-L1, 10µM, AdJ2 treated in induction phase and AdJ7 treated in accumulation phase, vs control", "value": "accumulation des céramides significative"},
      {"measurement": "accumulation de SM", "setting": "CERT [3]; 3T3-L1, 10µM, after 5 days of accumulation, treatment in first or second step", "value": "diminuer significativement l'accumulation de SM"},
      {"measurement": "quantité de SM", "setting": "CERT [3]; 3T3-L1, 10µM, early stage, just before accumulation step", "value": "légère diminution de la quantité de SM, toutefois non significative"},
      {"measurement": "expression de PPARγ", "setting": "3T3-L1 [4]; 10µM in accumulation phase", "value": "diminution drastique de l'induction de l'expression de PPARγ"},
      {"measurement": "expression de CD36, FAS, LPL et adiponectine", "setting": "3T3-L1 [4]; 10µM in induction or accumulation phase, stages AdJ2 and AdJ7", "value": "diminue l'induction de l'expression de ces 4 gènes"},
      {"measurement": "expression de PPARγ", "setting": "3T3-L1 [4]; 10µM in induction phase, stages AdJ2 and AdJ7", "value": "diminution de cette induction de l'expression de PPARγ"},
      {"measurement": "expression de C/EBPδ", "setting": "3T3-L1 [4]; 10µM, stage AdJ2", "value": "semble diminuer, toutefois non-significativement"},
      {"measurement": "expression de CD36, FAS, LPL et adiponectine", "setting": "3T3-L1 [4]; AdJ7 GED2 (10µM in accumulation phase)", "value": "diminution drastique"},
      {"measurement": "expression de Pref1", "setting": "3T3-L1 [4]; GED1 (10µM in induction phase), stage AdJ2", "value": "diminue de la même manière que chez les CTRL"},
      {"measurement": "expression de Pref1", "setting": "3T3-L1 [4]; GED1 (10µM in induction phase), stage AdJ7", "value": "n'est plus réprimé"},
      {"measurement": "expression de C/EBPα", "setting": "3T3-L1 [4]; [6]", "value": "diminuée"},
      {"measurement": "niveau d'expression de C/EBPδ", "setting": "3T3-L1 [4]; [6]", "value": "significativement augmenté"},
      {"measurement": "expression de Pref1", "setting": "3T3-L1 [4]; GED2 (10µM in accumulation phase), stage AdJ7", "value": "identique à celle des CTRL"}
    ]},
    {"smiles": "CC1(C)O[C@H]2CC(=O)OC[C@]23[C@H]2CC[C@@]4(C)[C@H](c5ccoc5)OC(=O)[C@H]5O[C@]54[C@]2(C)C(=O)C[C@@H]13", "note": "[Limonine, limonine]", "values": [
      {"measurement": "% variation versus contrôle", "setting": "3T3-L1 [5]; Limonine 10µM", "value": -10, "unit": "%"},
      {"measurement": "Moyenne ± écart type (Densité optique à 490nm)", "setting": "3T3-L1 [5]; Limonine 10µM", "value": "0,492 ± 0,061"},
      {"measurement": "% variation versus contrôle", "setting": "3T3-L1 [5]; Limonine 2OµM", "value": "-16,5%"},
      {"measurement": "Moyenne ± écart type (Densité optique à 490nm)", "setting": "3T3-L1 [5]; Limonine 2OµM", "value": "0,455 ± 0,037"},
      {"measurement": "cytotoxicité", "setting": "3T3-L1 [5]; limonin experiment, tested concentrations (10 and 20 µM)", "value": "Aucune cytotoxicité"},
      {"measurement": "quantité de lipides", "setting": "3T3-L1 [5]; limonin experiment", "value": "baisse dose dépendante de la quantité de lipides"},
      {"measurement": "quantité de lipides", "setting": "3T3-L1 [5]; mandarin extract experiment", "value": "baisse dose dépendante de la quantité de lipides"}
    ]}
  ]
}
